For one series, the system named is IL-6. The series can be described thus: TNFα-stimulated IL-6 production in primary bronchial epithelial cells from COPD. The conditions noted are these: Homo sapiens, Epithelial cell. The series is classed as cell-based. On the procedure:
Primary airway epithelial cells obtained from patients with COPD were purchased from Asterand (Royston, UK), and maintained in bronchial epithelial cell growth media that was prepared by mixing together LHC8 (lnvitrogen) (500 mL), with LHC9 (Invitrogen) (500 mL) and 3 μL of retinoic acid solution (5 mg/mL in neat DMSO. The media was removed by aspiration and fresh BEGM (200 μL) was added to each well. Where appropriate, 1 μL of a solution of the test compound at the state concentrations or 1 μL of DMSO as the vehicle control was added and the cells were incubated for 2 hr. The cells were stimulated with TNFα (50 μL; final concentration 50 ng/mL) and then incubated for 4 hr at 37° C. and 5% CO2. The supernatant was then collected and kept at −20° C.
The levels of IL-6 and IL-8 were determined by ELISA using R&D Systems' Human IL-6 and IL-8 Duoset® Elisa Kits. The inhibition of IL-6 and IL-8 production was calculated at each concentration by comparison with vehicle control.

The test system of series [1] is ICAM-1. Nature of the series: Rhinovirus-induced ICAM-1 expression in BEAS2B cells. The series is classed as cell-based. The conditions noted are these: Homo sapiens, BEAS-2B, read-out: IC50 Values for HRV Stimulated Release/Expression ICAM1 (BEAS2B). On the procedure: Human rhinovirus RV16 was obtained from the American Type Culture Collection (Manassas, Va.). Viral stocks were generated by infecting Hela cells with HRV until 80% of the cells were cytopathic.
BEAS2B cells were infected with HRV at an MOI of 5 and incubated for 2 hr at 33° C. with gentle shaking for to promote absorption. The cells were then washed with PBS, fresh media added and the cells were incubated for a further 72 hr. The supernatant was collected for assay of IL-8 concentrations using a Duoset ELISA development kit (R&D systems, Minneapolis, Minn.).
The level of cell surface ICAM-1 expression was determined by cell-based ELISA. At 72 hr after infection, cells were fixed with 4% formaldehyde in PBS. After quenching endogenous peroxidase by adding 0.1% sodium azide and 1% hydrogen peroxide, wells were washed with wash-buffer (0.05% Tween in PBS: PBS-Tween). […] The ICAM-1 signal was detected by adding substrate and reading at 450 nm with a reference wavelength of 655 nm using a spectrophotometer. The wells were then washed with PBS-Tween and total cell numbers in each well were determined by reading absorbance at 595 nm after Crystal Violet staining and elution by 1% SDS solution. The measured OD450-655 readings were corrected for cell number by dividing with the OD595 reading in each well. […]

The test system of the next series is d-U937 cells. Nature of the series: Cell viability: MTT assay. The series is classed as cell-based, human. The conditions noted are these: 1 μg/mL. On the procedure: Differentiated U937 cells were pre-incubated with each test compound (final concentration 1 μg/mL or 10 μg/mL in 200 μL media indicated below) under two protocols: the first for 4 hr in 5% FCS RPMI1640 media and the second in 10% FCS RPMI1640 media for 24 h. The supernatant was replaced with new media (200 μL) and MTT stock solution (10 μL, 5 mg/mL) was added to each well. After incubation for 1 hr the media were removed, DMSO (200 μL) was added to each well and the plates were shaken lightly for 1 hr prior to reading the absorbance at 550 nm. The percentage loss of cell viability was calculated for each well relative to vehicle (0.5% DMSO) treatment. Consequently an apparent increase in cell viability for drug treatment relative to vehicle is tabulated as a negative percentage.

Series [2] has as its system ICAM-1. Nature of the series: Poly I:C-induced ICAM-1 expression in BEAS2B cells. The conditions noted are these: Homo sapiens, BEAS-2B, read-out: PolyIC/ICAM1 IC50 (BEAS2B). In kind it is cell-based. On the procedure:
Poly I:C was used in these studies as a simple, RNA virus mimic. Poly I:C-Oligofectamine mixture (1 μg/mL Poly I:C, ±2% Oligofectamine, 25 μL; Invivogen Ltd., San Diego, Calif., and Invitrogen, Carlsbad, Calif., respectively) was transfected into BEAS2B cells (human bronchial epithelial cells, ATCC). Cells were pre-incubated with final concentrations of test compounds for 2 hr and the level of ICAM-1 expression on the cell surface was determined by cell-based ELISA. At a time point 18 hr after poly I:C transfection, cells were fixed with 4% formaldehyde in PBS (100 μL) and then endogenous peroxidase was quenched by the addition of washing buffer (100 μL, 0.05% Tween in PBS: PBS-Tween) containing 0.1% sodium azide and 1% hydrogen peroxide. Cells were washed with wash-buffer (3×200 μL). and after blocking the wells with 5% milk in PBS-Tween (100 μL) for 1 hr, the cells were incubated with anti-human ICAM-1 antibody (50 μL; Cell Signaling Technology, Danvers, Mass.) in 1% BSA PBS overnight at 4° C.
The cells were washed with PBS-Tween (3×200 μL) and incubated with the secondary antibody (100 μL; HRP-conjugated anti-rabbit IgG, Dako Ltd., Glostrup, Denmark). The cells were then incubated with of substrate (50 μL) for 2-20 min, followed by the addition of stop solution (50 μL, 1N H2SO4). The ICAM-1 signal was detected by reading […] the absorbance at 450 nm against a reference wavelength of 655 nm using a spectrophotometer. The cells were then washed with PBS-Tween (3×200 μL) and total cell numbers in each well were determined by reading absorbance at 595 nm after Crystal Violet staining (50 μL of a 2% solution in PBS) and elution by 1% SDS solution (100 μL) in distilled water. The measured OD 450-655 readings were corrected for cell number by dividing with the OD595 reading in each well. The inhibition of ICAM-1 expression was calculated at each concentration of test compound by comparison with vehicle control.

pIC50: −log10 of the molar value.

As to `Cc1ccc(-n2nc(C(C)(C)C)cc2NC(=O)Nc2ccc(Oc3ccnc(Nc4ccccc4)n3)c3ccccc23)cc1` [Example 1, 1-(3-(tert-Butyl)-1-(p-tolyl)-1H-pyrazol-5-yl)-3-(4-(2-(phenylamino)pyrimidin-4-yloxy)naphthalen-1-yl)urea], the pIC50 is 8.77 in the series with IL-6 (COPD patients, TNFα stimulated) and 10.64 with ICAM-1 [1]. Moreover, the Emax at 0.1 µg/mL in the series with IL-6 (read-out: IL-6 E max, bronchial epithelial cell) stood at 100%.
On to `Cc1ccc(-n2nc(C(C)(C)C)cc2NC(=O)Nc2ccc(Oc3ccnc(Nc4cccc(O)c4)n3)c3ccccc23)cc1` [Example 2, 1-(3-(tert-Butyl)-1-(p-tolyl)-1H-pyrazol-5-yl)-3-(4-((2-((3-hydroxyphenyl)amino)pyrimidin-4-yl)oxy)naphthalen-1-yl)urea], for which, in the series on d-U937 cells (4 h), the “MTT Assay Cell viability at time point in d-U937 Cells 4 h” value was “−ve (−ve and +ve indicate the value is below and above respectively, the no significant effect threshold defined as 30% inhibition at 1 μg/mL at the time point indicated)”. Also, in the series with d-U937 cells (24 h), the “MTT Assay Cell viability at time point in d-U937 Cells 24 h” value is “−ve (−ve and +ve indicate the value is below and above respectively, the no significant effect threshold defined as 30% inhibition at 1 μg/mL at the time point indicated)”. For the same compound, the pIC50 in the series on ICAM-1 [2] was 8.37.

Values taken from patent US10238658B2, “1-pyrazolyl-3-(4-((2-anilinopyrimidin-4-yl) oxy) napththalen-1-yl) ureas as p38 MAP kinase inhibitors” (Respivert Limited, priority 2011, dated 2019).
